Experimental data from US20240059703A1 (AMGEN INC., priority 2021, published 2024).

Tests used:
[1] = molecular target: KRAS G12C (Homo sapiens (Human), UniProt P01116, C118A/G12C); test: 2 h coupled exchange assay; type: biochemical; conditions: Avg 2 h Coupled exchange IC50, 2 h compound pre-incubation
Protocol: The term “2 h coupled exchange assay” or “20 h coupled exchange assay” as used herein refers to the assay described in the Section entitled “BIOLOGICAL EVALUATION.”

[2] = tested on: A549 (human lung carcinoma) cells; test: Cell Viability Assay (CellTiter-Glo), A549; type: cell-based; conditions: Homo sapiens, A549, 72 h
Outline: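 RPMI 1640/10% FBS; seed 1.67E+04 cells/mL, o/n 37° C., 5% CO2; serial-dilution cmpd 72 h; CellTiter-Glo luminescence vs DMSO; 4-parameter logistic fit → IC50.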

[3] = tested on: MIA PaCa-2 (human pancreatic carcinoma) cells; test: Cell Viability Assay (CellTiter-Glo), MIA PaCa-2; type: cell-based; conditions: Homo sapiens, MIA PaCa-2, 72 h
Protocol: Serially-diluted compound or DMSO was added to the cells, and plates were incubated at 37° C., 5% CO2 for 72 h. Cell viability was measured using a CellTiter-Glo® Luminescent Cell Viability Assay kit (Promega) according to the manufacturer's protocol. The luminescence signal of treated samples was normalized to DMSO control, and data were analyzed using a 4-parameter logistic model to calculate IC50 values.

Sequence of KRAS G12C (P01116 other isoform, or with tags, fused parts or gaps G12C/C118A): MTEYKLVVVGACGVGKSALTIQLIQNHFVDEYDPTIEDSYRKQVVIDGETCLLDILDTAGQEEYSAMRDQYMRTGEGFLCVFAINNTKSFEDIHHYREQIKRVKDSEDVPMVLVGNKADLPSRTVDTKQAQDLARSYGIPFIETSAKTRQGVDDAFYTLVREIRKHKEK

Compound	IC50 [1]	IC50 [2]	IC50 [3]
C=CC(=O)N1CC2(CCN(c3nc4cc(-c5nccn5C)ccc4c(-c4ccccc4Cl)c3C#N)C2)C1 [Example 15-7, 4-(2-chlorophenyl)-7-(1-methyl-1H-imidazol-2-yl)-2-(2-(2-propenoyl)-2,6-diazaspiro[3.4]octan-6-yl)-3-quinolinecarbonitrile]	115 nM	4140 nM	966 nM
C=CC(=O)N1CC2(CCN(c3nc4cc(-c5ccnn5C)ccc4c(-c4ccccc4Cl)c3C)C2)C1 [Example 16-1, 1-(6-(4-(2-chlorophenyl)-3-methyl-7-(1-methyl-1H-pyrazol-5-yl)quinolin-2-yl)-2,6-diazaspiro[3.4]octan-2-yl)prop-2-en-1-one]	280 nM	> 5000 nM	> 5000 nM
C=CC(=O)N1CC2(CCN(c3nc4cc(-c5ccnn5C)ccc4c(-c4cc(O)ccc4Cl)c3C)C2)C1 [Example 16-9, 1-(6-(4-(2-chloro-5-hydroxyphenyl)-3-methyl-7-(1-methyl-1H-pyrazol-5-yl)-2-quinolinyl)-2,6-diazaspiro[3.4]octan-2-yl)-2-propen-1-one]	60 nM	> 5000 nM	1330 nM
C=CC(=O)N1CC2(C1)CN(c1nc3cc(-c4ccnn4C)ccc3c(-c3ccccc3Cl)c1C#N)CC2(F)F [Example 17-2, 4-(2-chlorophenyl)-2-(8,8-difluoro-2-(2-propenoyl)-2,6-diazaspiro[3.4]octan-6-yl)-7-(1-methyl-1H-pyrazol-5-yl)-3-quinolinecarbonitrile]	98 nM	3020 nM	1880 nM
C=CC(=O)N1CC2(CCN(c3nc4cc(-n5ccnc5C)ccc4c(-c4ccccc4Cl)c3C#N)C2)C1 [Example 17-3, 4-(2-chlorophenyl)-7-(2-methyl-1H-imidazol-1-yl)-2-(2-(2-propenoyl)-2,6-diazaspiro[3.4]octan-6-yl)-3-quinolinecarbonitrile]	36 nM	1880 nM	684 nM
C=CC(=O)N1CC2(CCN(c3nc4cc(-n5ccnc5C)ccc4c(-c4ccccc4F)c3C#N)C2)C1 [Example 17-5, 4-(2-fluorophenyl)-7-(2-methyl-1H-imidazol-1-yl)-2-(2-(2-propenoyl)-2,6-diazaspiro[3.4]octan-6-yl)-3-quinolinecarbonitrile]	70 nM	4430 nM	1270 nM
C=CC(=O)N1CC2(CCN(c3nc4cc(-n5cncc5C)ccc4c(-c4ccccc4F)c3C#N)C2)C1 [Example 17-6, 4-(2-fluorophenyl)-7-(5-methyl-1H-imidazol-1-yl)-2-(2-(2-propenoyl)-2,6-diazaspiro[3.4]octan-6-yl)-3-quinolinecarbonitrile]	149 nM	4370 nM	2190 nM
C=CC(=O)N1CC2(CCN(c3nc4cc(-n5cncc5C)ccc4c(-c4ccccc4Cl)c3C#N)C2)C1 [Example 17-7, 4-(2-chlorophenyl)-7-(5-methyl-1H-imidazol-1-yl)-2-(2-(2-propenoyl)-2,6-diazaspiro[3.4]octan-6-yl)-3-quinolinecarbonitrile]	126 nM	3100 nM	1800 nM
C=CC(=O)N1CC2(CCN(c3nc4c(c(-c5cccc6cc(O)ccc56)c3C)CCN(C(C)C)C4)C2)C1 [Example 18-1, 1-(6-(4-(6-Hydroxy-1-naphthalenyl)-3-methyl-7-(2-propanyl)-5,6,7,8-tetrahydro-1,7-naphthyridin-2-yl)-2,6-diazaspiro[3.4]octan-2-yl)-2-propen-1-one]	37 nM	> 5000 nM	23 nM
C=CC(=O)N1CC2(CCN(c3nc4c(c(-c5c(C)ccc6[nH]ncc56)c3C)CCN(C(C)C)C4)C2)C1 [Example 18-2, 1-(6-(3-methyl-4-(5-methyl-1H-indazol-4-yl)-7-(2-propanyl)-5,6,7,8-tetrahydro-1,7-naphthyridin-2-yl)-2,6-diazaspiro[3.4]octan-2-yl)-2-propen-1-one]	268 nM	> 5000 nM	93 nM
C=CC(=O)N1CC2(CCN(c3nc4c(c(-c5cc(O)cc6ccccc56)c3C)CCN(C(C)C)C4)C2)C1 [Example 18-3, 1-(6-(4-(3-hydroxy-1-naphthalenyl)-3-methyl-7-(2-propanyl)-5,6,7,8-tetrahydro-1,7-naphthyridin-2-yl)-2,6-diazaspiro[3.4]octan-2-yl)-2-propen-1-one]	229 nM	> 5000 nM	137 nM
C=CC(=O)N1CC2(CCN(c3nc4c(c(-c5cccc6c5NCCC6)c3C)CCN(C(C)C)C4)C2)C1 [Example 18-5, 1-(6-(3-methyl-7-(2-propanyl)-4-(1,2,3,4-tetrahydro-8-quinolinyl)-5,6,7,8-tetrahydro-1,7-naphthyridin-2-yl)-2,6-diazaspiro[3.4]octan-2-yl)-2-propen-1-one]	990 nM	15300 nM	546 nM
C=CC(=O)N1CC2(CCN(c3nc4c(c(-c5cccc6cc(O)ccc56)c3C)CCN(C)C4)C2)C1 [Example 18-6, 1-(6-(4-(6-hydroxy-1-naphthalenyl)-3,7-dimethyl-5,6,7,8-tetrahydro-1,7-naphthyridin-2-yl)-2,6-diazaspiro[3.4]octan-2-yl)-2-propen-1-one]	80 nM	> 5000 nM	70 nM
C=CC(=O)N1CC2(CCN(c3nc4c(c(-c5cccc6cc(O)ccc56)c3C)CCN(C3COC3)C4)C2)C1 [Example 18-7, 1-(6-(4-(6-hydroxy-1-naphthalenyl)-3-methyl-7-(3-oxetanyl)-5,6,7,8-tetrahydro-1,7-naphthyridin-2-yl)-2,6-diazaspiro[3.4]octan-2-yl)-2-propen-1-one]	71 nM	> 5000 nM	64 nM
C=CC(=O)N1CC2(CCN(c3nc4c(c(-c5cccc6cc(O)ccc56)c3C)CCN(C(C)COC)C4)C2)C1 [Example 18-8, 1-(6-(4-(6-hydroxy-1-naphthalenyl)-7-((2R)-1-methoxy-2-propanyl)-3-methyl-5,6,7,8-tetrahydro-1,7-naphthyridin-2-yl)-2,6-diazaspiro[3.4]octan-2-yl)-2-propen-1-one|1-(6-(4-(6-hydroxy-1-naphthalenyl)-7-((2S)-1-methoxy-2-propanyl)-3-methyl-5,6,7,8-tetrahydro-1,7-naphthyridin-2-yl)-2,6-diazaspiro[3.4]octan-2-yl)-2-propen-1-one]	47 nM	> 5000 nM	170 nM
C=CC(=O)N1CC2(CCN(c3nc4c(c(-c5cc(O)ccc5Cl)c3C)CCN(C(C)C)C4)C2)C1 [Example 18-9, 1-(6-(4-(2-chloro-5-hydroxyphenyl)-3-methyl-7-(2-propanyl)-5,6,7,8-tetrahydro-1,7-naphthyridin-2-yl)-2,6-diazaspiro[3.4]octan-2-yl)-2-propen-1-one]	419 nM	> 5000 nM	316 nM
C=CC(=O)N1CC2(CCN(c3nc4c(c(-c5cccc6cc(O)ccc56)c3C)CCN(C(C)=O)C4)C2)C1 [Example 18-10, 1-(6-(7-acetyl-4-(6-hydroxy-1-naphthalenyl)-3-methyl-5,6,7,8-tetrahydro-1,7-naphthyridin-2-yl)-2,6-diazaspiro[3.4]octan-2-yl)-2-propen-1-one]	260 nM	> 5000 nM	381 nM
C=CC(=O)N1CC2(CCN(c3nc4c(c(-c5cc(O)ccc5Cl)c3C)CCN(C3CCCN(C)C3)C4)C2)C1 [Example 18-11, 1-(6-(4-(2-chloro-5-hydroxyphenyl)-3-methyl-7-((3R)-1-methyl-3-piperidinyl)-5,6,7,8-tetrahydro-1,7-naphthyridin-2-yl)-2,6-diazaspiro[3.4]octan-2-yl)-2-propen-1-one|1-(6-(4-(2-chloro-5-hydroxyphenyl)-3-methyl-7-((3S)-1-methyl-3-piperidinyl)-5,6,7,8-tetrahydro-1,7-naphthyridin-2-yl)-2,6-diazaspiro[3.4]octan-2-yl)-2-propen-1-one]	167 nM	> 5000 nM	174 nM
C=CC(=O)N1CC2(CCN(c3nc4c(c(-c5ccc(F)cc5F)c3C)CCN(c3scnc3C)C4)C2)C1 [Example 18-12, 1-(6-(4-(2,4-difluorophenyl)-3-methyl-7-(4-methyl-1,3-thiazol-5-yl)-5,6,7,8-tetrahydro-1,7-naphthyridin-2-yl)-2,6-diazaspiro[3.4]octan-2-yl)-2-propane-1-one]	172 nM	12500 nM	335 nM
C=CC(=O)N1CC2(CCN(c3nc4c(c(-c5cc(O)ccc5F)c3C)CCN(c3scnc3C)C4)C2)C1 [Example 18-13, 1-(6-(4-(2-fluoro-5-hydroxyphenyl)-3-methyl-7-(4-methyl-1,3-thiazol-5-yl)-5,6,7,8-tetrahydro-1,7-naphthyridin-2-yl)-2,6-diazaspiro[3.4]octan-2-yl)-2-propen-1-one]	86 nM	> 5000 nM	89 nM
C=CC(=O)N1CC2(CCN(c3nc4c(c(-c5c(C)ccc6[nH]ncc56)c3C)CCN(C3COC3)C4)C2)C1 [Example 18-14, 1-(6-(3-methyl-4-(5-methyl-1H-indazol-4-yl)-7-(3-oxetanyl)-5,6,7,8-tetrahydro-1,7-naphthyridin-2-yl)-2,6-diazaspiro[3.4]octan-2-yl)-2-propen-1-one]	376 nM	> 25000 nM	167 nM
